Source: patent US9596859B2, “Emulsifiable concentrate for a phytosanitary composition, phytosanitary composition and phytosanitary film” (Total Marketing Services, priority 2009, dated 2017)

Tested on: Aonidiella aurantii
Experiment: Insecticidal efficacy of emulsions sprayed on citrus groves (oranges)
Conditions: concentration 0.151/hl
Procedure: Samples of products to be tested on citrus groves (oranges) are prepared. The reference R corresponds to an untreated citrus plot.
Emulsions according to the invention are used, obtained from X6, at 3% in a mixture of hydrocarbons as described in Example 1 for forming the concentrate. This concentrate is mixed at concentrations of 1 and 2% in water, then emulsified. The citrus groves are sprayed at a rate of 1200 L/ha. The efficacy of these emulsions is compared to that of an emulsion of the prior art T1, as described hereinafter and to a chemical reference product corresponding to the use of a synthetic pesticide, here Chlorpyrifos, reference T2.
For the emulsion T1, the concentrate is prepared using 1.4% ethoxylated C12-C14 alcohol and 1.6% ethoxylated C13 alcohol acid phosphate in the same mixture of hydrocarbons. As previously, this concentrate is mixed at concentrations of 1 and 2% in water then emulsified. The resulting emulsions are applied in an identical manner onto citrus.
The efficacy of these emulsions in preventing harmful insect activity is then evaluated, by comparison with the reference products and the prior art. To this end, a count is undertaken of the number of insects present at the time of application of the emulsions on the reference, and the number of insects having withstood the treatment after 20 days. The efficacy is measured according to the Abbott formula based on the number of live insects, the number of dead insects and the % of citrus infected (more than 3 insects per fruit).

Q: For CCOP(=S)(OCC)Oc1nc(Cl)c(Cl)cc1Cl [Concentrate T2, Chlorpyrifos], which “% Efficacy (Based on mortality)” value (Abbott formula, t + 20 days) is on record?
A: Its value is 83.3%.

Q: What about the “% Efficacy (Based on the number of live individuals)” value (Abbott formula, t + 20 days) of the same compound?
A: The value was 89.9%.

Q: What about the “% mortality” value (t + 20 days, citrus) of the same compound?
A: The value was 88.0%.

Q: And the “Number of dead individuals” value (t + 20 days, citrus)?
A: The value was 172.0.

Q: What about the “Number of live individuals” value (t + 20 days, citrus) of the same compound?
A: The value was 23.5.

Q: And the “% fruits infected” value (t + 20 days, infected = more than 3 insects per fruit)?
A: Its value is 7.8%.

Q: What about the “Number of live individuals” value (t = 0 (at application), citrus) of the same compound?
A: Its value is 216.5.
